Source: ChEMBL document CHEMBL1201862, “PubChem BioAssay data set” (2004)
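Tested at 5 concentrations; 48 h exposure; 96-well plates; endpoints linearly interpolated, else capped at highest concentration. Here, GI50 denotes the concentration required for 50% inhibition of growth.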 Activity calls are given as the source filed them. Rule as the data show it: active = GI50 up to about 1.1 µM and inactive = higher. Where a SMILES comes first, the peptide text is derived from it. The star is where a group is joined. Boc = CC(C)(C)OC(=O)*

How the values were obtained:
Assay in all cases: DTP human tumour cell line panel, 48 h
BT-549 = system: BT-549
DU-145 = system: DU-145
MCF7 = system: MCF7
SR = system: SR
T47D = system: T47D
HOP-18 = system: HOP-18
M19-MEL = system: M19-MEL
LXFL 529 = system: LXFL 529

Measured: GI50

COC(=O)[C@H](Cc1ccc(O)cc1)NC(=O)[C@H](Cc1ccc(O)cc1)NC(=O)OC(C)(C)C (Boc-Tyr-Tyr-OMe)
inactive: BT-549 > 100 µM | DU-145 > 100 µM | MCF7 43.8 µM

Oc1cc(O)c2c(c1)O[C@H](c1ccc(O)c(O)c1)[C@@H](O)C2 [CIANIDANOL]
inactive: DU-145 > 100 µM | MCF7 > 100 µM | SR > 100 µM | T47D > 100 µM

CC(C)(CN1CCCCC1)C(=O)/C=C/c1c(Cl)cccc1Cl
active: DU-145 0.769 µM | SR 0.42 µM | T47D 0.421 µM
inactive: BT-549 1.86 µM | MCF7 1.29 µM

CCCCCCc1cc2cc(C(=O)Nc3nc(C45CC6CC(CC(C6)C4)C5)cs3)c(=O)oc2cc1O
inactive: BT-549 23.8 µM | DU-145 22.1 µM | MCF7 13.9 µM | SR 5.6 µM | T47D 5.68 µM

S=P1(N2CCCCC2)Oc2ccc3ccccc3c2-c2c(ccc3ccccc23)O1
inactive: HOP-18 > 71.8 µM | M19-MEL 71 µM | MCF7 > 85.3 µM

C(=C/c1nc2ccccc2o1)/c1ccc2c(c1)OCO2
inactive: HOP-18 5.21 µM | M19-MEL 21.2 µM | MCF7 14.5 µM

O=CNCNCCO
inactive: BT-549 > 100 µM | DU-145 > 100 µM | MCF7 > 100 µM | SR > 100 µM | T47D > 100 µM

O=c1[nH]nc(-c2ccccc2)n1/N=C/c1ccccc1Cl
inactive: BT-549 37.1 µM | DU-145 41.3 µM | MCF7 31.8 µM | SR 30.3 µM | T47D 24.8 µM

COc1ccc2c(OC)c3ccoc3nc2c1O
inactive: LXFL 529 > 100 µM | M19-MEL 54.8 µM
active: HOP-18 0.114 µM

CCOC(=O)c1ccc(C(=O)n2ccnc2)[nH]1
inactive: BT-549 > 100 µM | DU-145 > 100 µM | MCF7 > 100 µM | SR > 100 µM | T47D > 100 µM

Cc1ccc(N2Cc3c(ccc4ccccc34)OP2(=O)Oc2ccc(Cl)c(C)c2)cc1 (configuration not stated)
inactive: HOP-18 > 61.1 µM | M19-MEL > 100 µM | MCF7 18.4 µM

CC(C)=CCN1c2ccc(Cl)cc2NC(=O)CC1C (configuration not stated)
inactive: BT-549 21.8 µM | DU-145 42.1 µM | MCF7 21.4 µM | SR 5.45 µM | T47D 29.6 µM

CCOC(=O)CC[C@H](NC(=O)c1nc[nH]c1/N=N/N(C)C)C(=O)OCC
inactive: LXFL 529 > 100 µM | M19-MEL > 100 µM

CCCCCCCC(=O)OCC1OC(n2cc(F)c(=O)[nH]c2=O)C(NC(=O)OCc2ccccc2)C(OC(=O)CCCCCCC)C1O (configuration not stated)
inactive: LXFL 529 21.3 µM | M19-MEL 23.6 µM | SR 16.7 µM

C=Cc1cnc([N+](=O)[O-])n1C
inactive: BT-549 46.3 µM | DU-145 37.1 µM | MCF7 59 µM | SR 20.7 µM | T47D 46.5 µM

CS(=O)(=O)c1n[nH]c2nc(O)nc(O)c12
inactive: BT-549 > 10 µM | DU-145 > 10 µM | MCF7 > 10 µM | SR > 10 µM | T47D > 10 µM

CC(=O)[C@@]1(c2ccccc2)CC2(CCN(C)CC2)O[C@H]1C
inactive: BT-549 > 100 µM | DU-145 > 100 µM | T47D > 100 µM

COP(C)(=O)/C(Cc1ccccc1)=N\O (configuration not stated)
inactive: DU-145 > 100 µM | MCF7 > 100 µM | SR > 100 µM | T47D > 100 µM

COc1ccc(/N=C\c2cc(OC)c(OC)c(OC)c2)cc1
inactive: HOP-18 > 100 µM | LXFL 529 51.6 µM | M19-MEL > 100 µM

CN1CN(c2ccccc2)C2(CCN(CCCC(=O)c3cccs3)CC2)C1=O
inactive: DU-145 36.6 µM | MCF7 25.2 µM | SR 53.5 µM | T47D 29 µM

C(=C\Nc1ccc(Oc2ccccc2)cc1)/C=N/c1ccc(Oc2ccccc2)cc1
inactive: BT-549 15.9 µM | DU-145 20.1 µM | MCF7 16.9 µM | SR 19.4 µM

C=C(NC(=O)C(=C)NC(=O)c1ccc2c(n1)-c1coc(n1)C(=C)NC(=O)C(=C)NC(=O)c1nc(oc1C)C(=C)NC(=O)C(C(C)(C)O)NC(=O)C(=C)NC(=O)c1coc(n1)/C(=C/C)NC(=O)[C@H]([C@@H](C)O)NC(=O)c1csc-2n1)C(N)=O (some centres not stated)
inactive: BT-549 37.3 µM | DU-145 > 87.5 µM | MCF7 > 87.5 µM | SR > 87.5 µM

CCN(CCO)C(=O)C1(c2ccccc2)CCCCC1
inactive: DU-145 > 10 µM | MCF7 > 10 µM | SR > 10 µM | T47D > 10 µM

Cc1nc2ccc(S(=O)(=O)Nc3nccs3)cc2c(=O)n1NS(=O)(=O)c1nccs1
inactive: BT-549 > 100 µM | DU-145 > 100 µM | MCF7 37.4 µM | T47D > 100 µM

O=C(O)C1(Cc2ccc3c(c2)CCC3)Cc2cc3c(cc2C1)CCC3
inactive: BT-549 > 100 µM | DU-145 > 100 µM | MCF7 > 100 µM | SR > 100 µM

CCOC(=O)c1csc(NC(=O)CCN2CCCCC2)n1
inactive: DU-145 > 100 µM | MCF7 > 100 µM | SR > 100 µM | T47D > 100 µM
